In brackets after ≈: the same amount, converted by molar mass.
Legend:
[1] = system: A549 cells; experiment: Radiosensitization assay (crystal violet); type: cell-based, human; details: 4 Grays
Method: (§1) MCF7, MDA-MB-231, 501-MEL, Rosi, A549, SCC-15, SCC-25, UM-SCC-12, UM-SCC-14a, UM-SCC-49 and UM-SCC69 cells were seeded in 96-well tissue culture plates as previously described. After 24 hours, the media were changed to media with LCMT-li at various concentrations as described. After 3 hours, cells were irradiated at doses listed in Table 2 with an RS-2000 X-Ray Irradiator (Rad Source Technologies, Buford, Georgia). Radiation doses were based on published radiosensitization studies. After 24 hours cell viability was assessed using crystal violet staining. Briefly, cells were washed with PBS, then stained with crystal violet solution (0.25 g crystal violet in 20% methanol) for 20 minutes with agitation. The wells were washed 6 times with PBS to remove excess crystal violet. Plates were allowed to dry for 48 hours, and then 200 μL methanol was added to each well. The plates were agitated for 20 minutes to dissolve the crystal violet, and absorbance was read at 560 nm. The
(§2) radiosensitization assays were performed twice, each time with eight replicates per condition.

[2] = system: UM-SCC-49 cells; experiment: Radiosensitization assay (crystal violet); type: cell-based, human; details: irradiated 8 Grays 3 hours after compound, viability after 24 hours, listed as LCMT-li
Method: as §1, §2

[3] = system: MDA-MB-231 cells; experiment: Radiosensitization assay (crystal violet); type: cell-based, human; details: 10 Grays, data not shown
Method: as §1, §2

[4] = system: SCC-25 cells; experiment: Radiosensitization assay (crystal violet); type: cell-based, human; details: irradiated 8 Grays 3 hours after compound, viability after 24 hours
Method: as §1, §2

[5] = system: SCC-15 cells; experiment: Radiosensitization assay (crystal violet); type: cell-based, human; details: irradiated 8 Grays 3 hours after compound, viability after 24 hours, listed as LCMT-li
Method: as §1, §2

[6] = system: Rosi cells; experiment: Radiosensitization assay (crystal violet); type: cell-based, human
Method: as §1, §2

[7] = system: UM-SCC-69 cells; experiment: Radiosensitization assay (crystal violet); type: cell-based, human; details: irradiated 8 Grays 3 hours after compound, viability after 24 hours, listed as LCMT-li
Method: as §1, §2

[8] = system: 501-MEL cells; experiment: Radiosensitization assay (crystal violet); type: cell-based, human; details: 8 Grays
Method: as §1, §2

[9] = system: UM-SCC-12 cells; experiment: Radiosensitization assay (crystal violet); type: cell-based, human; details: irradiated 8 Grays 3 hours after compound, viability after 24 hours
Method: as §1, §2

[10] = system: MCF7 cells; experiment: Radiosensitization assay (crystal violet); type: cell-based, human; details: 4 Grays
Method: as §1, §2

[11] = system: MDA-MB-231 cells transfected with the LCMT-1 expression vector; experiment: Cytotoxicity assay in LCMT-1-transfected cells; type: cell-based, human; details: MDA-MB-231 transfected with LCMT-1 vector
Method: MDA-MB-231 cells were also transfected with the LCMT-1 expression vector using Lipofectamine 3000 transfection reagent (Thermo Fisher Scientific, Waltham, Massachusetts) according to the manufacturer's transfection protocol for MDA-MB-231 cells. After 5 hours the medium was changed. The cells were split 1:100 the following day, and 2 days after transfection, selection with G418 sulfate (Mediatech, Herndon, Virginia) at […] for 2 weeks commenced to develop stably transfected cells. After the selection process, cells were used in Compound 2 cytotoxicity assays as previously described.

[12] = Kinetic solubility; type: physicochemical; details: 2% dimethylsulfoxide/PBS, aqueous buffer, kinetic from dmso stock; read-out: Max. Kinetic Solubility
Excerpt: (§3) There is no cause for concern at this stage since there are multiple strategies and reagents for enhancing aqueous solubility for animal in vivo studies (Savjani, K. T., A. K. Gajjar and J. K. Savjani, 2012, ISRN Pharm 2012: 195727.). […] While target tissue exposure is dependent on free, unbound fractions in the plasma, plasma protein binding can protect compounds from hepatic metabolism. Thus, in vivo metabolism and excretion are often determined by a balance between these two properties. In vivo half-life is a complicated property impacted upon by multiple factors and is difficult to predict. […] While these numbers are somewhat low for a drug candidate, they are acceptable for proof of concept tool molecules which can be given multiple times per day and at higher doses to saturate metabolism.

[13] = Plasma stability; type: in vitro ADME; details: mouse plasma; read-out: Plasma Stability (t1/2)
Excerpt: as §3

[14] = system: MDA-MB-231 cells; experiment: Colony forming assay; type: cell-based, human; details: 50-3.25 μM, one week
Method: (§4) MCF7, MDA-MB-231 and Rosi cells were seeded in 96-well tissue culture plates (Celltreat, Pepperell, Massachusetts) at a density of 90 cells per well (Mayr et al. Int J Mol Sci. 2018; 19(3)). After 24 hours, the media were changed to media containing LB-100 or Compound 2 at various concentrations (50-3.25 μM). Control cells were given fresh media. After one week the media were aspirated and the wells were washed with PBS. Cells were stained with crystal violet solution (0.25 g crystal violet in 20% methanol) for 10 minutes. The wells were washed 6 times with PBS to remove excess crystal violet. Colonies were counted with an ECHO Revolve hybrid microscope at 1.5× magnification. There were ten replicates for each condition.

[15] = system: Rosi cells; experiment: Colony forming assay; type: cell-based, human; details: 50-3.25 μM, one week
Method: as §4

[16] = system: MCF7 cells; experiment: Colony forming assay; type: cell-based, human; details: 50-3.25 μM, one week
Method: as §4

COC(=O)c1c(NC(=O)c2ccccc2C)sc(C(=O)Nc2cccc(C)c2)c1C [Compound 2, methyl 4-methyl-2-[(2-methylbenzoyl)amino]-5-[[(3-methylphenyl)amino]carbonyl]-3-thiophenecarboxylate]
radiosensitization [1]: demonstrated radiosensitization
LCMT-1i radiosensitizing Concentration [2]: 2.5 to 10 µM
radiosensitization [3]: did not radiosensitize MDA-MB-231 cells
LCMT-1i radiosensitizing Concentration ([4]; listed as LCMT-1i): 1.25 µM
LCMT-1i radiosensitizing Concentration ([4]; listed as LCMT-li): 2.5 to 10 µM
LCMT-1i radiosensitizing Concentration [5]: 2.5 to 10 µM
radiosensitization ([6]; 8 Grays): demonstrated radiosensitization
LCMT-1i radiosensitizing Concentration ([6]; irradiated 8 Grays 3 hours after compound, viability after 24 hours): 50 µM
LCMT-1i radiosensitizing Concentration [7]: 2.5 to 10 µM
radiosensitization [8]: did radiosensitize these cells
LCMT-1i radiosensitizing Concentration [9]: 200 µM
radiosensitization [10]: did sensitize MCF7 cells to irradiation
effect of LCMT-1 overexpression on Compound 2-mediated cell death [11]: induced resistance to Compound 2-mediated cell death
solubility kinetic [12]: 18.5 µM (≈ 7.82 µg/mL)
half-life [13]: > 3 h
clonogenic colony formation [14]: inhibited colony formation
clonogenic colony formation [15]: inhibited colony formation
clonogenic colony formation [16]: inhibited to a lesser extent
